PMC12299470, “Selection of an Optimal Metabolic Model for Accurately Predicting the Hepatic Clearance of Albumin-Binding-Sensitive Drugs” (Pharmaceuticals, 2025)
Like-named read-outs stand apart in the source and are kept apart here.

Columns and labels:
[1] = set-up: method as in EMBL-EBI database; conditions: ref EMBL-EBI database, cited from earlier work; for HBA: hydrogen-bond acceptor; for HBD: hydrogen-bond donor
[2] = system: organic anion-transporting polypeptide; set-up: method as in El-Kattan et al. [36] and DrugBank; conditions: With / Without; ref El-Kattan et al. [36] and DrugBank; cited from earlier work
p-glycoprotein = system: p-glycoprotein; set-up: method as in El-Kattan et al. [36] and DrugBank; conditions: With / Without; ref El-Kattan et al. [36] and DrugBank; cited from earlier work
[3] = system: isolated perfused rat liver; experiment: Fitting of hepatic clearance models (MWSM, WSM, PTM, DM) to IPRL FH vs fu data
Description: (§1) Under this condition, hepatic availability (FH) served as a clear and practical indicator of CLH. […] Based on the principles of the WSM, Equations (3) and (4) were derived by applying Equations (1) and (2), in conjunction with the concept that CLH equals the liver blood flow multiplied by the extraction ratio. Subsequently, data fitting was performed using these formulas.
(§2) Rosuvastatin consistently aligned with the MWSM predictions throughout the experiment.
(§3) The extraction recovery, calibration curves and retention time of each compound are shown in Table S1, Figures S1 and S2, respectively. All available experimental data were included in the analysis. The formula and experimental data were processed by Prism software v10.4.1 (GraphPad Software, Inc) to generate figures and calculate the degree of fit of different models.

[4] = as above; conditions: male, Sprague-Dawley, rat, isolated perfused rat liver
Description: as §1, §2, §3

[5] = set-up: method as in PMID 35901930; conditions: fraction unbound in plasma; regression dataset; cited from earlier work
human serum albumin = human serum albumin (Homo sapiens, UniProt P02768); experiment: Rapid equilibrium dialysis (RED), fraction unbound at various HSA concentrations; format: in vitro ADME; conditions: drug 1 μg/mL in Krebs buffer, 37 °C, read-out: fraction unbound (fu)
human serum albumin, sequence (P02768 25-609): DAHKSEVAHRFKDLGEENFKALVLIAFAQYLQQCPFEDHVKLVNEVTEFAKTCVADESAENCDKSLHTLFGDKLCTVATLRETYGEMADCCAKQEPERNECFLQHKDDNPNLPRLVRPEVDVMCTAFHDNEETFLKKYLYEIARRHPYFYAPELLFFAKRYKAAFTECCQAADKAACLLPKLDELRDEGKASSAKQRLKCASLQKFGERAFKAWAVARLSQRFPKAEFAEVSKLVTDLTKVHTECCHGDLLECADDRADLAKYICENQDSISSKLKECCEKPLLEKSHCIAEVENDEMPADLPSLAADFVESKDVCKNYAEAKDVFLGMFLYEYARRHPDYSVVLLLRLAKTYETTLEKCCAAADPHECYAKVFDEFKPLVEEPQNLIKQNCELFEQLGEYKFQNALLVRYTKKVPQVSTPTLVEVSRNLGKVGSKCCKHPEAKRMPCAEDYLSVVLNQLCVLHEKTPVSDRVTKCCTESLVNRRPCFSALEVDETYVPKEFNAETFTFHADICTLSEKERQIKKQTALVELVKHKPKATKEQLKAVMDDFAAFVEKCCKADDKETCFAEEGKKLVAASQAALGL
Description: The rapid equilibrium dialysis (RED) apparatus and test inserts were purchased from Thermo Fisher Scientific (Rockford, IL, USA). The unbound fraction of each assessed drug was determined using RED. Briefly, a drug was diluted to 1 μg/mL in Krebs buffer containing different concentrations of HSA. Five hundred microliters of the assessed drug and each of the different HSA concentrations were added to the sample chamber of an insert and 750 μL of blank buffer was added to the adjacent chamber. The loaded inserts were then assembled on a Teflon-based plate.

[6] = Krebs buffer with 0% HSA, 0% HSA
[7] = Krebs buffer with 0.1% HSA, 0.1% HSA
[8] = Krebs buffer with 2% HSA, 2% HSA
[9] = Krebs buffer with […] HSA, 0.25% HSA

| Structure (SMILES) | Aromatic Rings [1] | Heavy Atoms [1] | OATP [2] | P-gp (p-glycoprotein) | HBA [1] | HBD [1] | fu p [5] | fraction unbound at 8 h, 1 μg/mL (human serum albumin; [6]) | fraction unbound at 8 h, 1 μg/mL (human serum albumin; [7]) | fraction unbound at 8 h, 1 μg/mL (human serum albumin; [8]) | fraction unbound at 8 h, 1 μg/mL (human serum albumin; [9]) | Optimal Model ([3]; HSA interval 0–2%) | sum of squares, DM ([3]; HSA interval 0–2%) | sum of squares, Modified WSM ([3]; HSA interval 0–2%) | sum of squares, PTM ([3]; HSA interval 0–2%) | sum of squares, WSM ([3]; HSA interval 0–2%) | further results |
| --- | --- | --- | --- | --- | --- | --- | --- | --- | --- | --- | --- | --- | --- | --- | --- | --- | --- |
| CN1C(=O)CN=C(c2ccccc2)c2cc(Cl)ccc21 [Diazepam] | 2 | 20 |  |  |  |  |  |  |  |  |  |  |  |  |  |  |  |
| O=C(O)Cc1ccccc1Nc1c(Cl)cccc1Cl [Diclofenac] | 2 | 19 | Without | Without | 3 | 2 | 0.004 |  |  |  |  |  |  |  |  |  | Optimal Model ([3]; HSA interval 0–0.01%): MWSM; sum of squares, DM ([3]; HSA interval 0–0.01%): 0.0792; sum of squares, Modified WSM ([3]; HSA interval 0–0.01%): 0.0278; sum of squares, PTM ([3]; HSA interval 0–0.01%): 0.0702; sum of squares, WSM ([3]; HSA interval 0–0.01%): 0.0885; Optimal Model ([3]; HSA interval 0.025–2%): WSM; sum of squares, DM ([3]; HSA interval 0.025–2%): 0.1400; sum of squares, Modified WSM ([3]; HSA interval 0.025–2%): 0.2923; sum of squares, PTM ([3]; HSA interval 0.025–2%): 0.1790; sum of squares, WSM ([3]; HSA interval 0.025–2%): 0.1194; CLint, DM ([3]; male, Sprague-Dawley, rat): 35.94; CLint, PTM ([3]; male, Sprague-Dawley, rat): 27.63; CLint, WSM ([3]; male, Sprague-Dawley, rat): 43.68; fraction unbound [4]: 0.576 to 0.872 |
| CNCCC(Oc1ccc(C(F)(F)F)cc1)c1ccccc1 (centres unmarked) [Fluoxetine] |  |  |  |  |  |  |  | 0.99 | 0.45 | 0.05 | 0.4 | WSM | 0.2062 | 5.9630 | 0.2096 | 0.1154 | fraction unbound at 8 h, 1 μg/mL (human serum albumin; Krebs buffer with […] HSA, 0.025% HSA): 0.87 |
| CC(C)c1nc(N(C)S(C)(=O)=O)nc(-c2ccc(F)cc2)c1/C=C/[C@@H](O)C[C@@H](O)CC(=O)O [Rosuvastatin] | 2 | 33 | With | Without | 9 | 3 | 0.129 | 0.99 | 0.9 | 0.29 | 0.77 | MWSM | 1.4550 | 0.2132 | 1.0670 | 1.8440 | fraction unbound at 8 h, 1 μg/mL (human serum albumin; Krebs buffer with 0.375% HSA, 0.375% HSA): 0.65; fraction unbound at 8 h, 1 μg/mL (human serum albumin; Krebs buffer with 0.5% HSA, 0.5% HSA): 0.51; fraction unbound at 8 h, 1 μg/mL (human serum albumin; Krebs buffer with 1% HSA, 1% HSA): 0.42; PSA ([1]; polar surface area, in Å2 (unit assumed)): 140.9 |
